According to paper PMC5905603, “Purification and characterisation of a quorum quenching AHL-lactonase from the endophytic bacterium Enterobacter sp. CS66” (FEMS Microbiology Letters, 2018):

Tested on: T1, AiiE
T1 construct: full-length ORF (ca. 750 bp) in pET-19m, E. coli Rosetta DE3; His6 tag cut off by TEV; 240B1
Assay: phenol red proton-release assay (A557), Lineweaver-Burk
Format: biochemical, Enterobacter sp. CS66
Conditions: 1 mM HEPES, 200 mM NaCl, 50 uM phenol red, pH 7.5
Text: phenol red proton-release assay (A557), Lineweaver-Burk on AiiE

Row | SMILES | Km [mM]
1 | CCCCCCCC(=O)N[C@H]1CCOC1=O [C8-HSL] | 10.3
2 | CCCCCCCCCCCC(=O)N[C@H]1CCOC1=O [C12-HSL] | 15.2
3 | CCCC(=O)N[C@H]1CCOC1=O [C4-HSL] | 6.01
4 | CCCCCC(=O)N[C@H]1CCOC1=O [C6-HSL] | 7.88
5 | CCCCCCCCCC(=O)N[C@H]1CCOC1=O [C10-HSL] | 14.9
